Patent US12077778B2, “Methods of generating human inner ear sensory epithelia and sensory neurons” (INDIANA UNIVERSITY RESEARCH AND TECHNOLOGY CORPORATION, priority 2015, dated 2024)

Assays:
Type in all cases: cell-based, human
[1] = test system: Matrigel-embedded hPSC aggregates; assay: Otic pit/vesicle formation in Matrigel-embedded day 12 aggregates treated with Wnt agonist
Description: To promote PAX2 expression and vesicle formation, we began testing various signaling modulators (FIGS. 12A-12C). […] We suspected that extracellular matrix could provide structural support for vesicle formation; thus, we transferred day 12 aggregates to Matrigel droplets in a minimal media (FIG. 4A). In these cultures, we observed radial production of migratory cells, but no vesicle-like structures or PAX2^+ cells were apparent (FIG. 2B). Wnt activation seems to be essential for otic, but not epibranchial development, in vivo and can enhance the production of mouse inner ear organoids in vitro^4,19-21. Remarkably, in 90.9±5.2% of Matrigel®-embedded aggregates treated with a Wnt signaling agonist, CHIR99021, between days 12-16 (n=84, 7 experiments), we witnessed epithelial protrusions reminiscent of the otic pits that precede vesicle development in vivo (FIG. 4C). We determined that the otic pit-like structures were PAX2^+ PAX8^+ SOX2^+ SOX10^+ JAG1^+, confirming otic identity (FIGS. 4D-4H). […] The aggregates were resuspended in ice cold undiluted GFR Matrigel and placed in approximately 25 μl droplets on the surface of a 100 mm bacterial culture plate. After at least 30 minutes of incubation at 37° C., the droplets were bathed in 10 ml of OMNI containing 3 μM CHIR99021. For non-droplet otic induction, the aggregates were washed and plated individually into each well of a 24-well low cell adhesion plate in OMNI containing 3 μM CHIR and 1% GFR Matrigel. After 18 days of differentiation, the CHIR was removed from the medium by washing and the droplet aggregates were moved to a floating culture. Droplets were carefully dislodged using a wide-mouth […] tip and transferred to 75 ml of fresh OMNI in a 125 ml disposable spinner flask (Corning). Spinner flasks were maintained on an in-incubator stir plate (Thermo Scientific) at 65 RPM for up to 180 days of differentiation. For some experiments, the aggregates were maintained in individual wells of 24-well low-cell adhesion plates in 1 ml of OMM on an in-incubator orbital shaker (Thermo Scientific) for up to 140 days. […]

OEPD-induced aggregates = assay: qPCR of PAX8/PAX2 expression after WNT and FGF signaling modulation, days 8-10; settings: one exploratory experiment
Method: Thus, we changed strategies by lengthening the initial culture phase to 12 days (with addition of fresh media on day 8) and testing the effect of transitioning the aggregates to Matrigel™ droplets.
Quantitative PCR. Analysis was performed as previously described on an ABI PRISM 7900HT Sequence Detection System (Applied Biosystems) or a Bio-Rad CFX96 quantitative PCR machine (Bio-Rad)^6. Data were normalized to L27 expression (internal control) and the fold change was calculated relative to Ct values from d0 WA25 aggregates using the ΔΔCt method. Unless stated otherwise, data represent at least 3 separate biological samples from separate experiments. All indicators of statistical significance refer to comparisons between a given condition and the control group. Refer to Table 4 for primer details.

hPS cell aggregates = assay: Otic placode-like cell induction by CHIR treatment on day 8; settings: CHIR 3 μM added on day 8
Method: hPSC differentiation. To start differentiation, hPSC cells were dissociated with StemPro Accutase (Invitrogen) and distributed, 5,000 cells per well, onto 96-well V-bottom plates in E8 medium containing 20 μM Y-27632 (Stemgent) and Normocin. Following a 48 hour incubation, the aggregates were transferred to 96-well U-bottom plates in 100 μl of Chemically Defined Medium (CDM) containing 4 ng ml^−1 FGF-2 (Peprotech), 10 μM SB-431542 (Stemgent), and, for some experiments, 2.5 ng ml^−1 BMP4 (Stemgent), and 2% Growth Factor Reduced (GFR) Matrigel (Corning) to initiate non-neural induction—i.e. differentiation day 0. CDM contained a 50:50 mixture of F-12 Nutrient Mixture with GlutaMAX (Gibco) and Iscove's Modified Dulbecco's Medium with GlutaMAX (IMDM; Gibco) additionally supplemented with 0.5% Bovine Serum Albumin (BSA), 1× Chemically Defined Lipid Concentrate (Invitrogen), […] (Sigma), 15 μg ml^−1 Transferrin (Sigma), 450 μM Mono-Thioglycerol, and Normocin (see Table 1 for a detailed formulation). […] For some experiments, CDM containing a 18 μM CHIR99021 (3 μM final concentration; Stemgent) was added to the pre-existing 125 μl of media in each well—we determined that this treatment is optional for inner ear organoid production, but may improve induction of otic placode-like cells. […]

`Cc1c[nH]c(-c2cnc(NCCNc3ccc(C#N)cn3)nc2-c2ccc(Cl)cc2Cl)n1` [CHIR99021] was tested. Which “aggregates with epithelial protrusions reminiscent of otic pits” value ([1]; CHIR99021 between days 12-16, n=84, 7 experiments) did it give?
Its value is 90.9±5.2%.

What about the “PAX8+ PAX2+ SOX10+ vesicles evaginating from the outer epithelium” value ([1]; CHIR between days 12-18) of the same compound?
The value was 10-30 vesicles per aggregate.

And the “aggregates with otic vesicle formation” value ([1]; Matrigel embedding with continued CHIR, days 12-18, >100 aggregates, four independent experiments)?
The value was greater than 95%.

And the “PAX2 expression (qPCR) compared to DMSO controls” value (OEPD-induced aggregates)?
Its value is “only had a modest positive or negative impact on PAX2 expression”.

And the “PAX2+ cells by day 12” value (hPS cell aggregates)?
Its value is “induces small patches of PAX2+ cells”.
